Assay [1] deals with lumen formed in angiogenesis kit with VEGF-A. The assay is described as follows: Angiogenesis inhibitory action (angiogenesis kit, VEGF-A, CD31 staining, area and length of lumen). It counts as cell-based. To be noted: 5 μg/mL, VEGF-A 10 ng/mL, 11 days. The source says: Angiogenesis Inhibitory Action
The angiogenesis inhibitory action of a test substance (Compound 3) was examined by use of measuring reagents and analysis software described below.
1. Measuring Reagents and Analysis Software
Angiogenesis kit (Cat. No. KZ-1000), manufactured by KURABO INDUSTRIES LTD.
Angiogenic agent VEGF-A (Cat. No. KZ-1350), manufactured by KURABO INDUSTRIES LTD.
Lumen staining kit (for staining CD31, Cat. No. ZHA-1225), manufactured by KURABO INDUSTRIES LTD.
Image analysis software: Angiogenesis Image Analyzer V2.0, manufactured by KURABO INDUSTRIES LTD.
Herein, as a culture medium, angiogenesis specific medium-2 (hereinafter referred to as the medium) provided in the above angiogenesis kit.
Positive control: Medium containing VEGF-A (10 ng/mL)
Negative control: Medium containing VEGF-A (10 ng/mL) and Suramin (50 μmol/L)
3. Preparation of Samples
A test substance was weighed at the starting day of a test. The medium was added so as to be 500 μg/mL. Sonication was performed while heating at 37° C. for 60 minutes to be dissolved. Then, filtration was performed by a 0.22 μm filter. The 500 μg/mL-solution was serially diluted with the medium in a common ratio of 10. […]
The pictures were subjected to image analysis by use of image analysis software, Angiogenesis Image Analyzer V 2.0, and the area and length of the lumen formed were measured.

The subject of assay [2] is HL60 (myelocytic leukemia). The assay can be described thus: Evaluation of anticancer action, cell proliferation inhibition (WST-8), HL60. The conditions noted are these: Homo sapiens, HL-60, HL60, about 96 hours. The assay is classed as cell-based. The text has this:
The cell proliferation inhibitory effects of a test substance (Compound 3) on various types of cancer cells were examined.
1. Measuring Reagent and Analysis Software
WST-8 Kit (Cat. No. 260-96165 or 260-96162; manufactured by Kishida Chemical Co., Ltd.) for counting cell number
Software for graph making and measurement of GI50 value: XLfit 5.2 (ID Business Solutions Ltd.)
2. Cells and Culture Conditions
Five types of cells and medium (the following Table) were used. The cells were obtained from the Research Resource Bank of the Human Sciences Foundation.
On the day when a sample was to be added, the sample was weighed and a medium for each type of cells was added so as to be 500 μg/mL. Sonication was performed while warming at 37° C. for 60 minutes to be dissolved. Then, filtration was performed by a 0.22 m-filter. The 500 μg/mL-solution was diluted with the medium for each type of cells to prepare 200 μg/mL, 60 μg/mL, 20 μg/mL, 6 μg/mL, 2 μg/mL, 0.6 μg/mL and 0.2 μg/mL solutions, which were specified as two-fold concentration test solutions (the final concentrations of the test substance were 250 µg/mL, 100 μg/mL, 30 μg/mL, 10 μg/mL, 3 μg/mL, 1 μg/mL, 0.3 μg/mL, […], respectively). […]
(8) Absorbance values at 450 nm and 650 nm were measured to calculate O.D. 450 and O.D. 650. […]
ODdrug-exposed wells: absorbance of a well containing a sample […]
On the technique in general: Tetrazolium dyes change colour on reduction, which living cells bring about.

The text below walks through data of patent publication US9682931B2, “Aryloyl(oxy or amino)pentafluorosulfanylbenzene compound, pharmaceutically acceptable salt thereof, and prodrugs thereof” (UBE INDUSTRIES, LTD., priority 2013, dated 2017).

Usually GI50 stands for the concentration at which growth is held to half of that of the control.

In brackets after ≈: the same amount, converted by molar mass.

As to `O=C(Nc1ccc(S(F)(F)(F)(F)F)cc1)c1cc(O)c(O)c(O)c1` [Compound 3, 4-(3,4,5-trihydroxybenzoylamino)pentafluorosulfanylbenzene], in assay [1], the “angiogenesis inhibitory effect (area and length of lumen)” value is “angiogenesis inhibitory effect was confirmed”. Besides, the 50% growth inhibitory concentration (GI50) in assay [2] is 1.7 µg/mL (≈ 4.58 µM).
